Measured values reported in PubChem BioAssay (NCI).
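Test compounds were applied to cells in 96-well plates for 48 hours at 5 doses. GI50 = concentration required for 50% inhibition of growth. TGI marks complete inhibition of growth.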

Legend:
Experiment in all cases: growth of human tumour cells (NCI), 48 h
[1] = tested on: A549 NSCLC
[2] = tested on: CCRF-CEM leukemia
[3] = tested on: HCT-116 colon
[4] = tested on: HOP-62 NSCLC
[5] = tested on: HT29 colon
[6] = tested on: M14 melanoma
[7] = tested on: NCI-H522 lung
[8] = tested on: RXF 393 renal
[9] = tested on: SNB-75 CNS
[10] = tested on: UO-31 renal

| SMILES | GI50 [1] | TGI [1] | GI50 [2] | TGI [2] | GI50 [3] | TGI [3] | GI50 [4] | TGI [4] | GI50 [5] | TGI [5] | GI50 [6] | TGI [6] | GI50 [7] | TGI [7] | GI50 [8] | TGI [8] | GI50 [9] | TGI [9] | GI50 [10] | TGI [10] |
| --- | --- | --- | --- | --- | --- | --- | --- | --- | --- | --- | --- | --- | --- | --- | --- | --- | --- | --- | --- | --- |
| CC1=C[C@H]2C[C@H](C)[C@H]3CC[C@H](C)[C@]4(C1)C(=O)C(O)=C(C)C(=O)[C@@]324 | 28.5 µM | > 100 µM | 11.7 µM | 31.5 µM | 19.5 µM | 41.8 µM | 28.7 µM | 83.6 µM | 27.8 µM | > 100 µM | 29.7 µM | > 100 µM | 19.8 µM | 83.4 µM | 60.9 µM | > 100 µM | 46.7 µM | > 100 µM | 29.8 µM | > 100 µM |
| CC1=C(C)C2(O)C(=C(C)C1=O)/C(=C(/O)c1ccccc1)c1nc3ccccc3n12 (stereo not given) | 19.3 µM | 44.4 µM | 12.2 µM | 38.5 µM | 29.4 µM | 72 µM | 21.9 µM | 48.7 µM | 32.5 µM | > 100 µM | 23.5 µM | 52.7 µM | 19.6 µM | 44.2 µM | 15.3 µM | 34.5 µM | 11.7 µM | 32.1 µM | 25.6 µM | > 100 µM |
| C=C1C(=O)O[C@H]2[C@H]1CC/C(COC(=O)NCCc1c[nH]c3ccc(Cl)cc13)=C\CC[C@@]1(C)O[C@@H]21 | 2.28 µM | 5.84 µM | 0.583 µM | 3.07 µM | 1.56 µM | 2.97 µM | 2.18 µM | 5.48 µM | 1.46 µM | 3.24 µM | 1.61 µM | 3.13 µM | 1.69 µM | 3.35 µM | 1.54 µM | 2.94 µM | 1.33 µM | 2.97 µM | 1.31 µM | 2.59 µM |
| Cc1ccc(C)c(NC(=O)CC2SC(=Nc3ccccc3Cl)NC2=O)c1 (stereo not given) | – | > 100 µM | – | > 100 µM | – | > 100 µM | – | > 100 µM | – | > 100 µM | – | > 100 µM | – | 96.5 µM | – | > 100 µM | – | > 100 µM | – | > 100 µM |
| COc1cc2c(cc1C1=NC(C)(C)CO1)OCO2 | – | > 100 µM | – | > 100 µM | – | > 100 µM | – | > 100 µM | – | > 100 µM | – | > 100 µM | – | > 100 µM | – | > 100 µM | – | > 100 µM | – | > 100 µM |
| CN(C)CCNC(=O)c1cccc2ccc(-c3ccc(-c4ccccc4)cc3)nc12 | – | 7.66 µM | – | 11.5 µM | – | 3.4 µM | – | 10.3 µM | – | 3.72 µM | – | 3.48 µM | – | 4.33 µM | – | 6.15 µM | – | 6.11 µM | – | 24.7 µM |
| C[C@@H]1COCCN1c1cc(C2([S@@](C)(=N)=O)CC2)nc(-c2ccnc3[nH]ccc23)n1 | 4.27 µM | > 100 µM | 2.55 µM | > 42.5 µM | 7.38 µM | > 100 µM | 3.74 µM | 63.6 µM | 6.41 µM | > 100 µM | 3.52 µM | 26.4 µM | 8.05 µM | > 100 µM | 2.34 µM | 9.68 µM | 2.3 µM | 28.6 µM | 4 µM | 50 µM |
